# B1: human PTH (1-84) (protein, UniProt P01270 32-115, looked up)
# Parathyroid hormone: SVSEIQLMHNLGKHLNSMERVEWLRKKLQDVHNFVALGAPLAPRDAGSQRPRKKEDNVLVESHEKSLGEADKADVNVLTKAKSQ
# modifications: Parathyroid hormone
# notes: recombinant human parathyroid hormone consisting of 84 amino acid residues
# Columns and labels:
# Format in all cases: in vivo, rat
# male Wister rats [1] = assay: Experimental tooth movement by closed coil spring (mesial shift of M1), systemic continuous infusion or intermittent injection; conditions: for mesial shift of M1 compared with control group: day 3
# Source text: (§1) There are two methods for experimental tooth movement, i.e., one wherein an elastic band (made of rubber) is inserted between teeth and another one wherein a closed coil spring for orthodontics is used. The closed coil spring employed herein is Sentalloy closed coil spring 509-21 (made of Ni—Ti, manufactured by Tomy International K.K.) which can give an almost constant traction force of about 30 g within a spring-elongation range of 2 to 3 mm. […] When the initial elongation of the spring is regulated within the above-mentioned range, therefore, a constant force can be applied regardless of orthodontic tooth movement. When a rubber substance is inserted between molars, an extremely large force is applied immediately after the insertion but scarcely any force is applied after the target tooth is shifted by 0.5 mm. Accordingly, either the method with the insertion of an elastic (rubber) band or another one with the use of a closed coil spring may be used in experimental tooth movement within a short period of time. When a tooth is to be shifted over a long time, however, it is appropriate to use the latter method wherein the first molar is mesially shifted by elongating a closed coil spring. The method with the insertion of an elastic (rubber) band was employed in Example 1, while another method with the use of a closed coil spring was employed in Example 2.
# (§2) It has been already clarified that the continuous administration of PTH and the intermittent administration thereof differ from each other in their effect on bones. Thus, attempts were made to examine how PTH administered by either method would affect the experimental tooth movement. Use was made of 12 male Wister rats weighing 350 to 400 g. In the continuous PTH-administration group, an osmotic pump (2ML2, manufactured by Alzet, Palo Alto, Calif., USA) was subcutaneously implanted into the dorsal part of each rat followed by the continuous infusion of hPTH (1-34) (manufactured by Peptide Institute Inc., Mino) in a dose of 0.4 μg/100 g body weight/day or 4 μg/100 g body weight/day. As the control groups, use was made of 2 groups including (1) one to which the vehicle was continuously infused, and (2) an intermittent administration group to which 4 μg/100 g body weight/day of PTH was subcutaneously injected into the dorsal part once a day. From the next day of the initiation of the PTH-administration, an ultra-elastic closed coil spring (509-21, manufactured by Tomy International, K.K., Tokyo) was put between the upper incisive tooth and the right first molar M1 followed by the mesial traction of M1 for 12 days (FIG. 6-A, B). After the initiation of the shifting, the precise impression of the upper jaw was taken every 3 days by using a silicone impression material (Exafine, manufactured by GC, Tokyo) and the distance between the first molar and the second molar (M2) was measured on ultra-hard gypsum models (FIG. 6-C). After the completion of shifting over 12 days, arterial blood was collected from the abdominal aorta and various serum parameters were measured. After sacrificing each rat, the upper jaw and the right thickening bone were taken out. The upper jaw was decalcificated and then cut into a paraffin section of 8 μm in thickness involving, in the direction of the major axis, the buccal mesial root and the buccal distal root followed by HE-staining and histological observation. The bone mineral content and bone mineral density of the isolated the femur were measured by dual-x-ray absorptometry (DCS-600, manufactured by Aloka, Tokyo, Japan).
# male Wister rats [2] = assay: Experimental tooth movement by closed coil spring (mesial shift of M1), local administration of sustained release dosage form; conditions: 1 μg/400 g locally injected every 2 days (sustained release), FIG. 15
# Source text: as §1, with “2. […]” for “2.”
# male Wister rats [3] = assay: Histological findings of periodontium and alveolar bone in closed coil spring tooth movement; conditions: continuous systemic infusion group
# Source text: as §2, with “The upper jaw was decalcificated and then cut into a paraffin section of 8 μm in thickness involving, in the direction of the major axis, the buccal mesial root and the buccal distal root followed by HE-staining and histological observation.” left out, “Japan). […]” for “Japan).”
# male Wister rats [4] = assay: Experimental tooth movement by elastic band inserted between M1 and M2 (teeth separation), continuous PTH infusion
# Source text: as §1
# (§3) 18 rats were divided into 4 groups including a control group having 6 animals and 3 PTH-infusion groups each having 4 animals. PTH was dissolved in a citric acid-buffered saline containing 0.05% of Tween 80 and introduced into osmotic pumps. Then these pumps were implanted in the subcutus posterior region of the neck of the rats under ether anetheia. PTH was continuously infused into the rats in doses of 1, 3 and 10 μg/100 g body weight/day and the rats were fed with a standard pelletized feed (manufactured by Oriental Yeast Co., Ltd.). To the rats of the control group, vehicles were exclusively administered. 48 hours after implanting, a piece of an elastic band (0.8 mm in thickness) was inserted between the right upper first molar and second molar (between M1 and M2) of each rat under ether anetheia in accordance with the method of Wong-Rothblatt (1954) as shown in FIG. 1(A). On day 3 of the teeth separation, the rat was sacrificed by ether-inhalation. After cutting out the upper jaw, the distance between the adjacent faces of M1 and M2 was measured with the combined use of contact gauges (manufactured by Sun Dental, Osaka) of 50, 100 and 150 μm in thickness (FIGS. 1(B) and (C)). In the case of the control group, a contact gauge of 50 μm could be inserted between M1 and M2. Thus, the interdental distance was calculated by subtracting 50 μm from the measured distance of each animal. […] The upper jaw was fixed in 4% paraformaldehyde, decalcificated in 4% formic acid and then implanted in paraffin. […] Histological examinations were all performed in the pressured side of the M1 interradicular septa and osteoclasts in the area of 300×700 μm^2 in this region were counted (FIG. 1(C)). Osteoclasts were counted based on the fact that they were large multinuclear cells having been stained with eosin and located adjacent to the bone surface. The statistic differences between the control group and the test group was evaluated in accordance with Wilcoxon's rank-sum calibration method. […]
# osteoclasts = assay: Osteoclast count in the pressured side of the M1 interradicular septa during teeth separation; conditions: for osteoclast count in the pressured side compared with control group: 10 μg/100 g body weight/day infusion, FIG. 5
# Experimental: as §3
# male Wister rats [5] = assay: Histological change in pressured periodontia during teeth separation
# Experimental: 18 rats were divided into 4 groups including a control group having 6 animals and 3 PTH-infusion groups each having 4 animals. PTH was dissolved in a citric acid-buffered saline containing 0.05% of Tween 80 and introduced into osmotic pumps. Then these pumps were implanted in the subcutus posterior region of the neck of the rats under ether anetheia. PTH was continuously infused into the rats in doses of 1, 3 and 10 μg/100 g body weight/day and the rats were fed with a standard pelletized feed (manufactured by Oriental Yeast Co., Ltd.). To the rats of the control group, vehicles were exclusively administered. 48 hours after implanting, a piece of an elastic band (0.8 mm in thickness) was inserted between the right upper first molar and second molar (between M1 and M2) of each rat under ether anetheia in accordance with the method of Wong-Rothblatt (1954) as shown in FIG. 1(A). On day 3 of the teeth separation, the rat was sacrificed by ether-inhalation. After cutting out the upper jaw, the distance between the adjacent faces of M1 and M2 was measured with the combined use of contact gauges (manufactured by Sun Dental, Osaka) of 50, 100 and 150 μm in thickness (FIGS. 1(B) and (C)). In the case of the control group, a contact gauge of 50 μm could be inserted between M1 and M2. Thus, the interdental distance was calculated by subtracting 50 μm from the measured distance of each animal. […] The upper jaw was fixed in 4% paraformaldehyde, decalcificated in 4% formic acid and then implanted in paraffin. Subsequently, these preparations were cut into continuous mesiodistal sections of 8 μm in thickness and stained with hematoxylin and eosin. Histological examinations were all performed in the pressured side of the M1 interradicular septa and osteoclasts in the area of 300×700 μm^2 in this region were counted (FIG. 1(C)). Osteoclasts were counted based on the fact that they were large multinuclear cells having been stained with eosin and located adjacent to the bone surface. The statistic differences between the control group and the test group was evaluated in accordance with Wilcoxon's rank-sum calibration method. Each of the data was expressed in average±SEM. A P value less than 0.05 was regarded as being statistically significant.
# 32 rats were divided into 2 test groups each having 16 animals. […] To the rats of the control group, vehicles were exclusively administered. 2 days after implanting osmotic pumps, an elastic band was inserted between the right M1 and M2 of each rat. On days 0, 1, 3 and 5 of the teeth separation (i.e., on days 2, 3, 5 and 7 of the PTH infusion), the rats were sacrificed followed by the same procedures as those performed in Experiment 1.
# [6] = 1 μg/100 g body weight/day and 3 μg/100 g body weight/day groups
molecule,measurement,setting,value
human PTH (1-34) [hPTH (1-34)],tooth shift-promoting effect,"male Wister rats [1]; continuous PTH infusion group, after day 9, FIG. 10",observed more remarkably
same,mesial shift of M1 compared with control group,"male Wister rats [1]; continuous PTH infusion group, FIG. 10",slightly significantly promoted
same,mesial shift of M1 relative to control group,"male Wister rats [1]; continuous infusion of 4 μg/100 g body weight/day, day 12",twice
same,mesial shift of M1,"male Wister rats [1]; continuous infusion of 4 μg/100 g body weight/day, day 12 of tooth movement",1.01±0.09 mm
same,"shift of M1, dose dependence","male Wister rats [1]; continuous infusion of 0.4 or 4 μg/100 g body weight/day, day 12, FIG. 7",promoted depending on the dose
same,mesial shift of M1 compared with control group,"male Wister rats [1]; intermittent PTH injection group (4 μg/100 g body weight/day s.c. once a day), FIG. 10",slightly significantly promoted
same,M1 shifting distance compared with control group,"male Wister rats [1]; intermittent PTH injection group, after day 6, FIG. 10",no significant difference
same,tooth movement-promoting effect,male Wister rats [2]; after day 9,more remarkable
same,mesial M1 shift,male Wister rats [2]; since day 3,tendency that the mesial M1 shift was promoted
same,bone resorption in the mesial alveolar bone of M1 compared with control group,male Wister rats [3],energetic bone resorption
same,bone resorption in the distal side of the alveolar septum,male Wister rats [3]; FIG. 16-B,remarkable bone resorption was observed over a wide range
same,"necrotic tissue in the periodontal membrane, compared with control group",male Wister rats [3]; FIG. 16-B,no such necrotic tissue
B1,distance between M1 and M2 compared with control group,"male Wister rats [4]; Experiment 1, 10 μg/100 g body weight/day continuous infusion, elastic band for 3 days, FIG. 2",significant increase
same,teeth separation distance compared with control group,"male Wister rats [4]; Experiment 2, 10 μg/100 g body weight/day infusion, day 1, FIG. 3",no significant difference
same,teeth separation distance compared with control group,"male Wister rats [4]; Experiment 2, 10 μg/100 g body weight/day infusion, day 3, FIG. 3",significant increase
same,teeth separation,"male Wister rats [4]; Experiment 2, 10 μg/100 g body weight/day infusion, day 5, FIG. 3",almost reached the limit
same,dose of PTH infusion achieving the maximum effect on teeth separation,"male Wister rats [4]; continuous infusion of 1, 3 and 10 μg/100 g body weight/day, day 3 of teeth separation, FIG. 2",10 μg/100 g body weight/day
same,osteoclast count in the pressured side compared with control group,osteoclasts; day 5,no significant difference
same,osteoclast count in the pressured side compared with control group,osteoclasts; from day 1,significant increase
same,"osteoclast count in the pressured side of the periodontia, test groups and control group compared","osteoclasts; 1, 3 and 10 μg/100 g body weight/day infusion (all 3 test groups), elastic band for 3 days, FIG. 4",significant increase
same,bone resorption compared with vehicle-treated rats,male Wister rats [5]; [6],bone resorption seemingly arose over wider range
same,necrotic tissue in the pressured periodontia,male Wister rats [5]; [6],necrotic tissue was also observed
same,necrotic tissue in the pressured periodontia,"male Wister rats [5]; 10 μg/100 g body weight/day, day 1 of teeth separation",necrotic tissue was observed
same,necrotic tissue in the pressured periodontia,"male Wister rats [5]; 10 μg/100 g body weight/day, day 3 of teeth separation",no necrosis
